Measured values published in patent publication US5716627A, “Skin care compositions containing fatty acid amides, azoles, and retinol or retinyl ester” (Elizabeth Arden Co., Division of Conopco, Inc., priority 1996, dated 1998).

What was measured:
Human keratinocytes = assay: 3H-thymidine incorporation by cultured keratinocytes (keratinocyte proliferation); assay type: cell-based
Protocol: Human keratinocytes, isolated from neonatal foreskin by trypsin treatment were grown in Dulbecco Modification Eagle (DME) Hams F12 (1:1) medium/10% fetal calf serum in the presence of irradiated 3T3 mouse fibroblasts for establishing dividing keratinocyte colonies. Cells were grown under the above condition until their second passage and kept frozen for future use. […] On day 7, when the cells were 80-90% confluent, they were trypsinized and plated in the serum-free medium for the various experiments.
The incorporation of ^3 H-thymidine by cultured keratinocytes was used as an assay of keratinocyte proliferation. Thymidine is one of four deoxynucleosides which are the monomeric units of DNA, the universal library of genetic information in the animal kingdom. Prior to cell division of a somatic cell such as a keratinocyte, the complete genome of the cell undergoing cell division is replicated. This involves large scale DNA synthesis by the cell and enables both daughter cells to receive identical copies of the genetic material. When ^3 H-thymidine is included in the culture media of keratinocytes which are synthesizing DNA in preparation for cell division then the labelled nucleoside is incorporated into the newly synthesized DNA. The extent of incorporation of ^3 H-thymidine into a population of cells is proportional to the rate of DNA synthesis by this population of cells and therefore an indication of their cellular proliferation.
Keratinocytes (that were cultured as described above) were plated in 24 well plates at a density of 40,000 cells per well in 1 ml media. After incubation for four days or until the cells were 60-70% confluent, the media was changed. Test compounds were added (in triplicate) to the wells 24 hours after the media change, and four hours later 1 μCi ^3 H-Thymidine in 50 μl media was added per well. Cells were incubated for a further 24 hours. Media was removed from the cells, 10% ice cold trichloroacetic acid (TCA) added and plates were incubated on ice for 30 minutes. Cells were washed five times with 5% TCA and allowed to dissolve in 500 μl 0.1M NaOH for at least one hour (usually overnight). The preparations were neutralized with 0.1M HCl; 50 μl of the cell preparation was used to determine total protein content. Disintegrations per minute (DPM) from ^3 H labelling of DNA was determined by liquid scintillation counting of 900 μl of the cell preparation. Thymidine incorporation results were expressed as DPM/μg protein.

TGase I = assay: Transglutaminase (TGase I) ELISA in cultured keratinocytes, normalized to DNA content (keratinocyte differentiation); assay type: cell-based, human; details: for Mean TGase/DNA X 10^-4 ± S.D.: n = 3
Protocol: Human keratinocytes, isolated from neonatal foreskin by trypsin treatment were grown in Dulbecco Modification Eagle (DME) Hams F12 (1:1) medium/10% fetal calf serum in the presence of irradiated 3T3 mouse fibroblasts for establishing dividing keratinocyte colonies. Cells were grown under the above condition until their second passage and kept frozen for future use. Frozen second passage keratinocytes were thawed and plated into the above medium and grown for five days before they were switched to a serum-free MCDB 153-based medium keratinocyte growth medium (KGM) from Clonetics Corporation, San Diego, Calif., containing 0.15 mM Ca, or keratinocyte serum-free media (KSFM) from GIBCO containing 0.09 mM Ca). On day 7, when the cells were 80-90% confluent, they were trypsinized and plated in the serum-free medium for the various experiments.
During the process of terminal differentiation in the epidermis, a 15 nm thick layer of protein, known as the cornified envelope (CE) is formed on the inner surface of the cell periphery. The CE is composed of numerous distinct proteins which have been cross-linked together by the formation of N^ε -(γ-glutamyl) lysine isodipeptide bonds catalyzed by the action of at least two different transglutaminases (TGases) expressed in the epidermis. TGase I is expressed in abundance in the differentiated layers of the epidermis, especially the granular layer, but is absent in the undifferentiated basal epidermis. Thus TGase I is a useful marker of epidermal keratinocyte differentiation with high TGase I levels indicating a more differentiated state. An ELISA based TGase I assay, using a TGase I antibody, was used to assess the state of differentiation of the cultured keratinocytes in the examples that follow.
Keratinocytes (cultured as described above) were plated in 96 well plates at a density of 3,000 cells per well in 200 μl media. After incubation for four days the media was changed to media containing test compounds (six replicates per test). The cells were cultured for a further 72 hours after which time the media was aspirated and the plates stored at -70° C. Plates were removed from the freezer, and the cells washed with PBS. 100 μl sterile water was added and the cells were freeze fractured by freezing at -70° C. then thawing. The cells were incubated for one hour at room temperature (R/T) with PBS/3% BSA (wash buffer, bovine serum albumin), then rinsed with a fresh aliquot of wash buffer. Cells were incubated with 50 μl of primary antibodies monoclonal anti-human transglutaminase (IgG) obtained from Amersham (mouse) diluted 1:300 in wash buffer for one hour, 37° C. then rinsed two times with wash buffer. Cells were then incubated with 50 μl of secondary antibody (Feb fragment, peroxidase conjugated anti-mouse IgG obtained from Amersham) diluted 1:200 in wash buffer for one hour at 37° C., then rinsed two times with wash buffer. Cells were incubated with substrate solution (4 mg o-phenylene diamine and 3.3 μl 30% H2 O2 in 10 ml 0.1M citrate buffer pH 5.0) for five minutes, R/T, in darkness (under aluminum foil). The reaction was stopped by the addition of 50 μl 4N H2 SO4. The absorbance of samples was read at 492 nm in the plate reader. Out of the six replicates, four were treated with both antibodies, two were treated only with the secondary antibody (i.e., to determine background binding of enzyme conjugated Ab). TGase levels were determined by subtracting background from the readings from each treatment and determining mean ±s.d. for the replicates exposed to both Ab.
The level of TGase-1 detected after treatment of the cells could be influenced by cell number, i.e., the greater the number of cells the greater the level of TGase-1 detected. The level of TGase-1 was normalized to DNA content of the cells in the same well thus eliminating variation due to differences in cell number. […]

[1] = Examples 1-4, overall conclusion

- effect on transglutaminase level / keratinocyte differentiation (in words) (TGase I; Example 1, 2.5×10^-7 M, 2.5×10^-8 M and 2.5×10^-9 M): dose dependent
- TGase/DNA (% Control) (TGase I; Table 1B, 2.5 × 10^-7 M, 72 hours, 0.25 µM): 47%
- Mean TGase/DNA X 10^-4 ± S.D. (TGase I; Table 1B, 2.5 × 10^-7 M, 72 hours): 1.14 ± 0.22 X 10^-4
- TGase/DNA (% Control) (TGase I; Table 1B, 2.5 × 10^-8 M, 72 hours, 0.025 µM): 77%
- Mean TGase/DNA X 10^-4 ± S.D. (TGase I; Table 1B, 2.5 × 10^-8 M, 72 hours): 1.89 ± 0.30 X 10^-4
- TGase/DNA (% Control) (TGase I; Table 1B, 2.5 × 10^-9 M, 72 hours, 0.0025 µM): > 100%
- Mean TGase/DNA X 10^-4 ± S.D. (TGase I; Table 1B, 2.5 × 10^-9 M, 72 hours): 2.70 ± 0.59 X 10^-4
- TGase/DNA (% Control) (TGase I; Table 2B and Example 2B text, 2.5×10^-8 M RA or retinol, 10^-8 M LAMEA, 10^-8 M bifonazole where named, 72 hour): 84%
- mean TGase/DNA × 10^-4 ± s.d (TGase I; Table 2B, 2.5 × 10^8 M [sic] RA or ROH, 10^8 M LA-MEA, 10^8 M Bifonazole where named, 72 hour, n = 6): 0.111 ± 0.023 × 10^-4
- TGase/DNA (% Control) (TGase I; Table 3B and Example 3B, 2.5×10^-9 M RA or ROH, with 10^-8 M LADEA and/or 10^-8 M climbazole where named, 72 hour): 129%
- mean TGase/DNA × 10^4 ± s.d (TGase I; Table 3B, 2.5 × 10^9 M [sic] RA or ROH, with 10^8 M LA-DEA and/or 10^8 M Climbazole where named, 72 hour, n = 6): 1.96 ± 0.33 × 10^4
SMILES: CC1=C(/C=C/C(C)=C/C=C/C(C)=C/CO)C(C)(C)CCC1 [ROH, retinol]
- effect on keratinocyte proliferation (in words) (Human keratinocytes; [1]): completely ineffective at increasing keratinocyte proliferation
- Thymidine incorporation (% control) (Human keratinocytes; Table 1A, 2.5 × 10^-7 M, 24 hours, 0.25 µM): 106%
- mean Thymidine incorp./μg protein ± s.d (Human keratinocytes; Table 1A, 2.5 × 10^-7 M, 24 hours, n = 3): 2218 ± 73 DPM/μg protein
- Thymidine incorporation (% control) (Human keratinocytes; Table 1A, 2.5 × 10^-8 M, 24 hours, 0.025 µM): 97%
- mean Thymidine incorp./μg protein ± s.d (Human keratinocytes; Table 1A, 2.5 × 10^-8 M, 24 hours, n = 3): 2034 ± 46 DPM/μg protein
- Thymidine incorporation (% control) (Human keratinocytes; Table 1A, 2.5 × 10^-9 M, 24 hours, 0.0025 µM): 94%
- mean Thymidine incorp./μg protein ± s.d (Human keratinocytes; Table 1A, 2.5 × 10^-9 M, 24 hours, n = 3): 1977 ± 19 DPM/μg protein
- Thymidine incorporation (% control) (Human keratinocytes; Table 2A, 2.5 × 10^-9 M RA or ROH, with 10^-8 M LADEA and/or 10^-9 M Bifonazole where named, 24 hours): 111%
- mean Thymidine incorp. μg protein ± s.d (Human keratinocytes; Table 2A, 2.5 × 10^-9 M RA or ROH, with 10^-8 M LADEA and/or 10^-9 M Bifonazole where named, 24 hours, n = 3): 4856 ± 217 DPM/μg protein
- Thymidine incorporation (% control) (Human keratinocytes; Table 3A, 2.5 × 10^8 M [sic] ROH, with 10^8 M LADEA and/or 10^9 M Climbazole where named, 1440 min): 102%
- mean Thymidine incorp/μg protein ± s.d (Human keratinocytes; Table 3A, 2.5 × 10^8 M [sic] ROH, with 10^8 M LADEA and/or 10^9 M Climbazole where named, n = 3): 3788 ± 57 DPM/μg protein
- Thymidine incorporation (% control) (Human keratinocytes; Table 4, 2.5 × 10^9 M [sic] RA or ROH, with 10^8 M LAMEA and/or 10^8 M Clotrimazole where named, 24 hours): 113%
- mean Thymidine incorp/μg protein ± s.d, normalized to control (Human keratinocytes; Table 4, 2.5 × 10^9 M [sic] RA or ROH, with 10^8 M LAMEA and/or 10^8 M Clotrimazole where named, 24 hours, n = 3): 1.13 ± 0.09
- effect on keratinocyte TG1 level / differentiation (in words) (TGase I; Example 2, 2.5×10^-8 M RA or retinol, 10^-8 M LAMEA, 10^-8 M bifonazole, 72 hour): Neither 2.5×10^-8 M retinol nor 10^-8 M LAMEA+10^-8 M bifonazole had an inhibitory effect on the keratinocyte TG1 level
- effect on keratinocyte TG1 level / differentiation (in words) (TGase I; Example 3, 2.5×10^-7 M RA, 2.5×10^-9 M retinol with 10^-8 M LADEA and/or climbazole, 72 hour): no inhibitory effect on the keratinocyte TG1 level
- effect on keratinocyte differentiation (in words) (TGase I; [1]): significantly less effective than retinoic acid at inhibiting keratinocyte differentiation
